According to patent US20220249480A1, “APPLICATION OF FLUORO-SUBSTITUTED 2-AMINOTHIAZOLE-5-AROMATIC CARBOXAMIDE” (HUNAN WARRANT PHARMACEUTICAL CO., LTD, priority 2019, published 2022):

Legend:
[1] = in vitro; conditions: human, microsomes; for CLint scaled at 1 μM / half-life at 1 μM: pH 7.4
Procedure: Test compound concentration: 1.0 μM
Buffer solution: 0.05 M phosphate buffer solution (pH 7.4)
Human liver microsomes: Corning® UltraPool™ HLM 150, 20 mg/mL
NADPH concentration: 1.0 mM
Total reaction volume: 850 μL
Incubation temperature: 37° C.
Pre-incubation time: 5 min (no NADPH added)
Sampling time: 0, 5, 10, 15, 20 and 30 min (0, 15 and 30 min for control group)
Sampling volume: 85 μL per time point
Test compounds: Verapamil, Dasatinib, and the compound of Formula I
a) Solutions of 10 mM test compounds in DMSO were diluted to 100 μM using acetonitrile:water (50:50).
c) 2.5 mM NADPH solution was formulated.
d) The liver microsomal protein, buffer solution, and test compound were pipetted sequentially into 1.5 ml incubation tubes according to the volume in the experimental design table, and incubated at 37° C. for 5 min with constant shaking.
e) 85 μL of the quenching reagent was added into a 250 μL quenching vial which was then placed on an ice bath.
f) The reaction was initiated by adding NADPH solution, and 85 μL sample was immediately taken and mixed evenly in the quenching vial with controlled incubation and quenching, this is referred to 0 min sampling point. The sample was capped, vortexed and centrifuged at 4° C.
g) The quenching solution was placed at 4° C. for 10 min for the precipitation of the protein.
h) The operations of other sampling points was similar to that of the 0 min sampling point.
i) The sample quenching reaction mixture solution was thoroughly mixed evenly and centrifuged at 14000 rpm for 10 min at room temperature.
j) The supernatant (˜100 μl) was pipetted for LC-MS analysis.
Instrument: Waters® ACQUITY HPLC-Xevo G2-XS QTof
Chromatographic column: ACQUITY UPLC® BEH C18 column 2.1×50 mm, 1.7 μm
Mobile phase: mobile phase A was 0.1% formic acid in water and mobile phase B was 0.1% formic acid in acetonitrile.
The amount of the parent compound at each time point was determined based on the peak area ratio (compound area/warfarin area).
The intrinsic clearance (CLint) was calculated by the following equation:
V(μL/mg)=volume of incubation (μL)/protein amount in the incubation (mg)

[2] = biological target: T1, ABL1 (Homo sapiens, UniProt P00519); assay: In vitro kinase inhibition activity (33P-ATP radiometric filter assay), ABL1; assay type: biochemical
T1 construct: purchased Invitrogen
Procedure: (§1) Test group: 50 μl DMSO was used to dissolve the compound of Formula I and Dasatinib, respectively, and the final drug concentration was 10 mM.
(§2) Starting concentration of drugs in the test group: 1 μM
(§3) Buffer solution conditions: 20 mM Hepes (pH 7.5), 10 mM MgCl2, 1 mM EGTA, 0.02% Brij35, 0.02 mg/ml BSA, 0.1 mM Na3VO4, 2 mM DTT, 1% DMSO.
(§4) Note: Required enzyme cofactor were added separately to each kinase reaction.
(§5) a) An indicated substrate was prepared in a freshly made reaction buffer.
(§6) b) Any required enzyme cofactors were added into the substrate solution described above.
(§7) c) The indicated kinase was added into the substrate solution and gently mixed.
(§8) d) The test drugs were added into the kinase reaction mixture using Echo 550.
(§9) e) ^33P-ATP (specific radioactivity 0.01 μCi/μl) was added into the reaction mixture, and the reaction was initiated.
(§10) g) The reaction was spotted onto P81 ion-exchange paper.
(§11) h) The filter was washed with 0.75% phosphoric acid.
(§12) i) The radioactive phosphorylated substrate remaining on the filter paper was measured.
(§13) Kinase activity data are expressed as the percent of the remaining kinase activity in the test samples compared with the reactions of the vehicle (dimethyl sulfoxide). IC50 values and curve fitting were obtained using Prism4 software (GraphPad).

[3] = biological target: T2, BTK (Homo sapiens, UniProt Q06187); assay: In vitro kinase inhibition activity (33P-ATP radiometric filter assay), BTK; assay type: biochemical
T2 construct: purchased Invitrogen
Procedure: as §1, §2, §3, §4, §5, §6, §7, §8, §9, §10, §11, §12, §13

[4] = biological target: T3, BTK (C481S) (Homo sapiens, UniProt Q06187, C481S); assay: In vitro kinase inhibition activity (33P-ATP radiometric filter assay), BTK (C481S); assay type: biochemical
T3 construct: purchased Signal Chem
Procedure: as §1, §2, §3, §4, §5, §6, §7, §8, §9, §10, §11, §12, §13

T1 sequence (P00519 whole entry): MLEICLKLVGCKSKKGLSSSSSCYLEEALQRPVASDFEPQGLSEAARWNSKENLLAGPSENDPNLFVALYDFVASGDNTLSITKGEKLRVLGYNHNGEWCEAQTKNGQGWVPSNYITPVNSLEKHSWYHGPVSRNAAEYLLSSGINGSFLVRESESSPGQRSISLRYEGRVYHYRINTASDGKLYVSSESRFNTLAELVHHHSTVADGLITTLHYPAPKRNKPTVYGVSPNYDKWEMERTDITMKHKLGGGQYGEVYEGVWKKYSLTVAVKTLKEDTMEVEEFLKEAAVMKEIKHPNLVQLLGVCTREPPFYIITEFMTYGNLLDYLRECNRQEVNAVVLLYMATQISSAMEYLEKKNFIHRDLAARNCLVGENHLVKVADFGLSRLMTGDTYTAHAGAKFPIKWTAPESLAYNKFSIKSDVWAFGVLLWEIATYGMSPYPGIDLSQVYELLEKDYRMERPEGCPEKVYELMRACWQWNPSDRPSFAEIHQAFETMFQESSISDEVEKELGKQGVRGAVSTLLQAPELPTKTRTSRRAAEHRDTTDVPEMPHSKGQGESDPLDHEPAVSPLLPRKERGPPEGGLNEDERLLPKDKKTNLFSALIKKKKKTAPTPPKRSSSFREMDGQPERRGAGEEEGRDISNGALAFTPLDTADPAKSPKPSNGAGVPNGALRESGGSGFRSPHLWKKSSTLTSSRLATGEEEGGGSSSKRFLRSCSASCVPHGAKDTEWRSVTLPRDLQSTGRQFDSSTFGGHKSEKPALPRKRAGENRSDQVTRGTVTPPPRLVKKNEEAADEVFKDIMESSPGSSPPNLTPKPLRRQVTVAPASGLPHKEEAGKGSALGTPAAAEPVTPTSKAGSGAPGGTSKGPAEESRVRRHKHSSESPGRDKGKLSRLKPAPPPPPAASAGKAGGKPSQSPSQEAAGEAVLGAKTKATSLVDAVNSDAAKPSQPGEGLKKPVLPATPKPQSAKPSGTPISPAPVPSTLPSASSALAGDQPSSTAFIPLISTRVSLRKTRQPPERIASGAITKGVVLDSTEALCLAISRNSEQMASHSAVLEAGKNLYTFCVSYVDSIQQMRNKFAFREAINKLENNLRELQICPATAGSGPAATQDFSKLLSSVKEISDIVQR
T2 sequence (Q06187 whole entry): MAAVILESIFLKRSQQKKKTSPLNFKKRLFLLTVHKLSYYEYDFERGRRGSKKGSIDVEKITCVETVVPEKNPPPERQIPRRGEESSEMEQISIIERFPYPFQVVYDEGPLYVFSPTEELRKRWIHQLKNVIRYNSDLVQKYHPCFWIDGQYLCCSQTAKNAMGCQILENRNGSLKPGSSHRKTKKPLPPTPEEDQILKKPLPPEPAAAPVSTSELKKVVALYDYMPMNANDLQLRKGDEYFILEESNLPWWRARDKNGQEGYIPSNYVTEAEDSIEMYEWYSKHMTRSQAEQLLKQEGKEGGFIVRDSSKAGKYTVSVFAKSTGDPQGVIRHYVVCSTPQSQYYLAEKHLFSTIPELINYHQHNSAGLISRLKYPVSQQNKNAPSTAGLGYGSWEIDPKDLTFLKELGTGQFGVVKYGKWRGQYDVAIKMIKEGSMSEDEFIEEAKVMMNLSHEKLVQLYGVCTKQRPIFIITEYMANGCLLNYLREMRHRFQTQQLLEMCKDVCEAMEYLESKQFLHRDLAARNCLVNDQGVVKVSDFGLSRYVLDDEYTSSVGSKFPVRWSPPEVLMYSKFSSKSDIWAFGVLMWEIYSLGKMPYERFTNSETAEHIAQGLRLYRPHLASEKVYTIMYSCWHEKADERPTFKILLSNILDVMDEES
T3 sequence (Q06187 whole entry C481S): as the sequence (Q06187 whole entry) above, with C481S counted along it

| Structure (SMILES) | Clearance [1] [min⁻¹] | CLint scaled at 1 μM [1] [mL/min/kg] | half-life at 1 μM [1] [min] | IC50 ([2]; ABL1 0.1 nM, ABLtide 20 μM, ATP 10 μM, 15 min compound incubation, 2 h reaction) [pM] | Ratio Dasatinib/the compound of Formula I ([2]; ratio of IC50 values, ABL1) | IC50 ([3]; BTK 8 nM, pEY 0.2 mg/ml, ATP 10 μM, 15 min compound incubation, 2 h reaction) [pM] | Ratio Dasatinib/the compound of Formula I ([3]; ratio of IC50 values, BTK) | IC50 ([4]; BTK (C481S) 6 nM, pEY 0.2 mg/ml, ATP 10 μM, 15 min compound incubation, 2 h reaction) [pM] | Ratio Dasatinib/the compound of Formula I ([4]; ratio of IC50 values, BTK (C481S)) |
| --- | --- | --- | --- | --- | --- | --- | --- | --- | --- |
| Cc1nc(Nc2ncc(C(=O)Nc3c(C)cccc3Cl)s2)cc(N2CCN(CCO)CC2)n1 [Dasatinib, reference compound] | 0.0635 | 211 | 10.9 |  |  |  |  |  |  |
| Cc1nc(Nc2ncc(C(=O)Nc3c(C)cc(F)cc3Cl)s2)cc(N2CCN(CCO)CC2)n1 [The compound of Formula I, N-(2-chloro-4-fluoro-6-methylphenyl)-2-[[6-[4-(2-hydroxyethyl)-1-piperazinyl]-2-methyl-4-pyrimidinyl]amino]-5-thiazolecarboxamide] | 0.0426 | 142 | 16.3 | 4.2 | 5.95 | 157 | 3.32 | 32 | 3.53 |
